Assay results: patent US9090628B2, “Benzoxazepin compounds selective for PI3K P110 delta and methods of use” (GENENTECH, INC., priority 2011, dated 2015)

Tests used:
[1] = target: p110 alpha (Homo sapiens (Human), UniProt P42336); assay: PI3K isoform inhibition assay, p110 alpha (for alpha/delta selectivity); conditions: ratio of biochemical IC50 values
Outline: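 Fluorescence polarization displacement of a fluorescent PIP3 probe from GRP-1 detector by PI3K-formed PIP3; p110α/p85α at 40 ng/mL with 10 μM PIP2 substrate.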

[2] = tested on: CD69 production by B lymphocytes in human whole blood activated with anti-human IgM; assay: CD69 Whole Blood Assay; assay type: cell-based; conditions: Lymphocyte, anti-IgM stimulated, CD69 positive of CD20 positive cells
Description: There is good evidence that B-cells play a key role in the pathogenesis of autoimmune and/or inflammatory disease. Protein-based therapeutics that deplete B cells such as Rituxan are effective against autoantibody-driven inflammatory diseases such as rheumatoid arthritis (Rastetter et al. (2004) Annu Rev Med 55:477). CD69 is the early activation marker in leukocytes including T cells, thymocytes, B cells, NK cells, neutrophils, and eosinophils. The CD69 human whole blood assay (Example 903) determines the ability of compounds to inhibit the production of CD69 by B lymphocytes in human whole blood activated by crosslinking surface IgM with goat F(ab′)2 anti-human IgM.
Human blood is obtained from healthy volunteers, with the following restrictions: 1 week drug-free, non-smokers. Blood (approximately 20 mls to test 8 compounds) is collected by venipuncture into Vacutainer tubes with sodium heparin.
Solutions of Formula I compounds at 1000 or 2000 μM in PBS (20×), are diluted by three-fold serial dilutions in 10% DMSO in PBS for a nine point dose-response curve. An aliquot of 5.5 μl of each compound is added in duplicate to a 2 ml 96-well plate; 5.5 μl of 10% DMSO in PBS is added as control and no-stimulus wells. Human whole blood—HWB (100 μl) is added to each well. After mixing the plates are incubated at 37° C., 5% CO2, 100% humidity for 30 minutes. Goat F(ab′)2 anti-human IgM (10 μl of a 500 μg/ml solution, 50 μg/ml final) is added to each well (except the no-stimulus wells) with mixing and the plates are incubated for an additional 20 hours. At the end of the 20 hour incubation, samples are incubated with fluorescent labeled antibodies for 30 minutes, at 37° C., 5% CO2, 100% humidity. Include induced control, unstained and single stains for compensation adjustments and initial voltage settings. Samples are then lysed with Pharmingen Lyse according to the manufacturer's instructions. Samples are then transferred to a 96 well plate suitable to be run on the AMS 96 well system on the BD Calibur FACs machine. Data acquired and Mean Fluorescence Intensity values were obtained using Cell Quest Software. Results are initially analyzed by FACS analysis software (Flow Jo).

[3] = target: p110 delta (Homo sapiens (Human), UniProt O00329); assay: PI3K isoform inhibition assay, p110 delta (fluorescence polarization displacement); assay type: biochemical
p110 delta, sequence (O00329 whole entry, canonical isoform): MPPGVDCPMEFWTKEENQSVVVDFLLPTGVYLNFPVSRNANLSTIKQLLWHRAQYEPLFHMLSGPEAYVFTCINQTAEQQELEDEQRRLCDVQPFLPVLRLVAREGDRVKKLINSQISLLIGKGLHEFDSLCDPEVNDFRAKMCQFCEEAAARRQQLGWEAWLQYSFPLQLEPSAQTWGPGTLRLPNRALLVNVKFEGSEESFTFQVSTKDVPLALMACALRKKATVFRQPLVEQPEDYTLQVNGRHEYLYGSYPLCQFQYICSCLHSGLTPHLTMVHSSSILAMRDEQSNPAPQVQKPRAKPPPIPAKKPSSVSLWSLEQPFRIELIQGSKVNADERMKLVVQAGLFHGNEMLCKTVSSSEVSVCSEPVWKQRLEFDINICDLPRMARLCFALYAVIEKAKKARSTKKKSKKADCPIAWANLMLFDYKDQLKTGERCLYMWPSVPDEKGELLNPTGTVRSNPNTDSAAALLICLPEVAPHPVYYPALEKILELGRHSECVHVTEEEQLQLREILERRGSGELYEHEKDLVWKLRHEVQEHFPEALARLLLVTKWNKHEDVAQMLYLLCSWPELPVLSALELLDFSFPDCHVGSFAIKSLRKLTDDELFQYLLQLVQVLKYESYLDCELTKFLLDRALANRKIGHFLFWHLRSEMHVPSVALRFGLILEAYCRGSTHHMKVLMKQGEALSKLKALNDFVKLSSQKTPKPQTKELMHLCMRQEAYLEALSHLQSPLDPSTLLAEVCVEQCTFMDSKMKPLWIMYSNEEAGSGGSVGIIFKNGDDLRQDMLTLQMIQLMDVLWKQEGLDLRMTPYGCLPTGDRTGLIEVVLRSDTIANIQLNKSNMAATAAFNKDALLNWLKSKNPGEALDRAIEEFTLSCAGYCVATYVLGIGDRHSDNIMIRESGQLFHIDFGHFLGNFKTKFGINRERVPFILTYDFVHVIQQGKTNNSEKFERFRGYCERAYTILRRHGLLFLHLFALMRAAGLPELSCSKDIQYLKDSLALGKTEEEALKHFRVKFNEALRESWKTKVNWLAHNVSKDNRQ
p110 delta, sequence (P27986 whole entry partner, canonical isoform): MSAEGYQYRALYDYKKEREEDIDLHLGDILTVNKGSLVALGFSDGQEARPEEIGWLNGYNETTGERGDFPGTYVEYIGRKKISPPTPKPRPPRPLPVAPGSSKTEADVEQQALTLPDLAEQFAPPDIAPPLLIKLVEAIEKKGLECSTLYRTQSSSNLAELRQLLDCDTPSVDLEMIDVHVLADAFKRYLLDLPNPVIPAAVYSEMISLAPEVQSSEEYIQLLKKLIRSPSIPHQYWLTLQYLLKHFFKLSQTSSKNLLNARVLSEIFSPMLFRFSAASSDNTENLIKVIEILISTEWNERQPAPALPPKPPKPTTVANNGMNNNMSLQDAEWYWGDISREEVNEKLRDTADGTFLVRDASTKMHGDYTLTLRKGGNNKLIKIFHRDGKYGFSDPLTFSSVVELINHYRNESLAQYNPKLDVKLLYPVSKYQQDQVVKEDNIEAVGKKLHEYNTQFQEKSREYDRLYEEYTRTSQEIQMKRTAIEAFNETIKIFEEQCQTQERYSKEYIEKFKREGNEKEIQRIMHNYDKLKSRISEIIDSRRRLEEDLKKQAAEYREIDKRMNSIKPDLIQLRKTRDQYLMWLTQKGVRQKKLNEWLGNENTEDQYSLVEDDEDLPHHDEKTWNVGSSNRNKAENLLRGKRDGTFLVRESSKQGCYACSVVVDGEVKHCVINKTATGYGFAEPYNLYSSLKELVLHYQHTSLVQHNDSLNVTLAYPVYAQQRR

p110 alpha, sequence (P42336 whole entry, canonical isoform): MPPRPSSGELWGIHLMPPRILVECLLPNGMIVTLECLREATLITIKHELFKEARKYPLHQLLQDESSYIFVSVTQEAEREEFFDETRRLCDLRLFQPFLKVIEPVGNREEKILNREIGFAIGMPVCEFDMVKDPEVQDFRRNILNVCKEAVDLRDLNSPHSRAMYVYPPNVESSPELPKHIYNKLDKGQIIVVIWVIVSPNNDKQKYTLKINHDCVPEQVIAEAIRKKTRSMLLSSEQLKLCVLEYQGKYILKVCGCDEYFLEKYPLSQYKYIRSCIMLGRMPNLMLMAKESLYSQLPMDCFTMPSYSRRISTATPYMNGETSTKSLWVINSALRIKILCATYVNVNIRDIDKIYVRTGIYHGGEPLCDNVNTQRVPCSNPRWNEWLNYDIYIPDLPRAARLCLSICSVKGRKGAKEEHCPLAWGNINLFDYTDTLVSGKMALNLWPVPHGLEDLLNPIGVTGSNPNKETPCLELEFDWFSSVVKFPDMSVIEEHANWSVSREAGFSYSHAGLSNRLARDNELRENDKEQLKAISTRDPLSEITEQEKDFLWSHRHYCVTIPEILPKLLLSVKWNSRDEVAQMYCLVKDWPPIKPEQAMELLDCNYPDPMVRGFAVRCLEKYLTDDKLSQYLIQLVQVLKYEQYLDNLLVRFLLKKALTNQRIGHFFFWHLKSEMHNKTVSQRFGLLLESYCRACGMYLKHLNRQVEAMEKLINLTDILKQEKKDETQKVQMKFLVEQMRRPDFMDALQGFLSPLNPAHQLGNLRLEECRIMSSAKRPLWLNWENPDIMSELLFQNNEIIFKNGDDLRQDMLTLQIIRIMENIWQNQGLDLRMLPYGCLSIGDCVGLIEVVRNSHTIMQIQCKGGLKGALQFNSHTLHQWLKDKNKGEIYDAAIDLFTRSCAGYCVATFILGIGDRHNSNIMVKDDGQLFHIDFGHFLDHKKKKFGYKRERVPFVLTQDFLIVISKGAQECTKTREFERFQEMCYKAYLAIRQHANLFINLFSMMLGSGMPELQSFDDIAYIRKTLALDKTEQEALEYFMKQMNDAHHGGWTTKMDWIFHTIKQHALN
p110 alpha, sequence (P27986 whole entry partner, canonical isoform): as the sequence (P27986 whole entry partner, canonical isoform) above

SMILES	IC50 p110 alpha/IC50 p110 delta [1]	IC50 [2]	IC50 [3]
CC(C)n1ncnc1-c1cn2c(n1)-c1cc(CN3CCN(C(C)(C)C)CC3)ccc1OCC2 [Example 108, 10-((4-tert-butylpiperazin-1-yl)methyl)-2-(1-isopropyl-1H-1,2,4-triazol-5-yl)-5,6-dihydrobenzo[f]imidazo[1,2-d][1,4]oxazepine]	21.8	40.5 nM	2.46 nM
CC(C)n1ncnc1-c1cn2c(n1)-c1cc(C(=O)N3CCN(C(C)(C)C)CC3)ccc1OCC2 [Example 110, (4-tert-butylpiperazin-1-yl)(2-(1-isopropyl-1H-1,2,4-triazol-5-yl)-5,6-dihydrobenzo[f]imidazo[1,2-d][1,4]oxazepin-10-yl)methanone]	27.1	129 nM	0.919 nM
CC(C)n1ncnc1-c1cn2c(n1)-c1cnc(N3CCCC3C3CCN(C)CC3)cc1OCC2 (stereo not drawn) [Example 115, 2-(1-isopropyl-1H-1,2,4-triazol-5-yl)-9-(2-(1-methylpiperidin-4-yl)pyrrolidin-1-yl)-5,6-dihydroimidazo[1,2-d]pyrido[3,4-f][1,4]oxazepine]		38.1 nM	
CC(Oc1ccc2c(c1)OCCn1cc(-c3ncnn3C(C)C)nc1-2)C1CCN(C(C)C)CC1 (stereo not drawn) [Example 143, 2-(1-isopropyl-1H-1,2,4-triazol-5-yl)-9-(1-(1-isopropylpiperidin-4-yl)ethoxy)-5,6-dihydrobenzo[f]imidazo[1,2-d][1,4]oxazepine]	14.4	58.2 nM	0.442 nM
CC(C)n1ncnc1-c1cn2c(n1)-c1ccc(-c3ccnn3C3CCN(C)CC3)cc1OCC2 [Example 160, 2-(1-isopropyl-1H-1,2,4-triazol-5-yl)-9-(1-(1-methylpiperidin-4-yl)-1H-pyrazol-5-yl)-5,6-dihydrobenzo[f]imidazo[1,2-d][1,4]oxazepine]		45.9 nM	
Cc1nc(-c2cn3c(n2)-c2ccc(-c4cnn(C)c4C4CCCN(C(C)(C)CO)C4)cc2OCC3)n(C(C)C)n1 (stereo not drawn) [Example 248, 2-(3-(4-(2-(1-isopropyl-3-methyl-1H-1,2,4-triazol-5-yl)-5,6-dihydrobenzo[f]imidazo[1,2-d][1,4]oxazepin-9-yl)-1-methyl-1H-pyrazol-5-yl)piperidin-1-yl)-2-methylpropan-1-ol]		49.7 nM	
Cc1nc(-c2cn3c(n2)-c2ccc(N4CCC[C@@H]4C4CCN(C(C)C)CC4)cc2OCC3)n(C(C)C)n1 [Example 263, (R)-2-(1-isopropyl-3-methyl-1H-1,2,4-triazol-5-yl)-9-(2-(1-isopropylpiperidin-4-yl)pyrrolidin-1-yl)-5,6-dihydrobenzo[f]imidazo[1,2-d][1,4]oxazepine]		45.8 nM	
Cc1nc(-c2cn3c(n2)-c2ccc(-c4cn[nH]c4C4CCCN(C(C)C)C4)cc2OCC3)n(C(C)C)n1 (stereo not drawn) [Example 360, 2-(2-isopropyl-5-methyl-1,2,4-triazol-3-yl)-9-[5-(1-isopropyl-3-piperidyl)-1H-pyrazol-4-yl]-5,6-dihydroimidazo[1,2-d][1,4]benzoxazepine]	24		0.311 nM
Cc1nc(-c2cn3c(n2)-c2ccc(-c4cn[nH]c4C4CCCN(C(C)C)C4)cc2OCC3)n(C(C)C)n1 (stereo not drawn) [Example 361, 2-(2-isopropyl-5-methyl-1,2,4-triazol-3-yl)-9-[5-(1-isopropyl-3-piperidyl)-1H-pyrazol-4-yl]-5,6-dihydroimidazo[1,2-d][1,4]benzoxazepine]	23.6		0.972 nM
Cc1nc(-c2cn3c(n2)-c2cc([C@H](C)N4CCN(C(C)(C)CO)CC4)ncc2OCC3)n(C(C)C)n1 [Example 364, (S)-2-(4-(1-(2-(1-isopropyl-3-methyl-1H-1,2,4-triazol-5-yl)-5,6-dihydroimidazo[1,2-d]pyrido[4,3-f][1,4]oxazepin-10-yl)ethyl)piperazin-1-yl)-2-methylpropan-1-ol]	85.9		2.1 nM
Cc1nc(-c2cn3c(n2)-c2cc([C@@H](C)N4CCN(C(C)(C)CO)CC4)ncc2OCC3)n(C(C)C)n1 [Example 365, (R)-2-(4-(1-(2-(1-isopropyl-3-methyl-1H-1,2,4-triazol-5-yl)-5,6-dihydroimidazo[1,2-d]pyrido[4,3-f][1,4]oxazepin-10-yl)ethyl)piperazin-1-yl)-2-methylpropan-1-ol]	83.2		2.63 nM
Cc1nc(-c2cn3c(n2)-c2ccc(-c4cnn(C)c4C4CN(C(C)C)CCN4C)cc2OCC3)n(C(C)C)n1 (stereo not drawn) [Example 366, 9-[5-(4-isopropyl-1-methyl-piperazin-2-yl)-1-methyl-pyrazol-4-yl]-2-(2-isopropyl-5-methyl-1,2,4-triazol-3-yl)-5,6-dihydroimidazo[1,2-d][1,4]benzoxazepine]	172		< 0.035 nM
Cc1nc(-c2cn3c(n2)-c2ccc(-c4cnn(C)c4N4CCN(C)[C@H](C(C)C)C4)cc2OCC3)n(C(C)C)n1 [Example 367, 9-[5-[(3R)-3-isopropyl-4-methyl-piperazin-1-yl]-1-methyl-pyrazol-4-yl]-2-(2-isopropyl-5-methyl-1,2,4-triazol-3-yl)-5,6-dihydroimidazo[1,2-d][1,4]benzoxazepine]	48.8		0.048 nM
COc1cc2c(cc1[C@@H](C)N1CCN(C(C)(C)C)CC1)-c1nc(-c3nc(C)nn3C(C)C)cn1CCO2 [Example 368, 10-[(1R)-1-(4-tert-butylpiperazin-1-yl)ethyl]-2-(2-isopropyl-5-methyl-1,2,4-triazol-3-yl)-9-methoxy-5,6-dihydroimidazo[1,2-d][1,4]benzoxazepine]	92.4		1.06 nM
Cc1nc(-c2cn3c(n2)-c2ccc(-n4ccnc4C4CCCN(C(C)C)C4)cc2OCC3)n(C(C)C)n1 (stereo not drawn) [Example 369, 2-(2-isopropyl-5-methyl-1,2,4-triazol-3-yl)-9-[2-(1-isopropyl-3-piperidyl)imidazol-1-yl]-5,6-dihydroimidazo[1,2-d][1,4]benzoxazepine]	40.4		3.09 nM
Cc1nc(-c2cn3c(n2)-c2cnc(-c4cnn(C)c4C4CCCN(C(C)C)C4)cc2OCC3)n(C(C)C)n1 (stereo not drawn) [Example 370, 2-(1-isopropyl-3-methyl-1H-1,2,4-triazol-5-yl)-9-(5-(1-isopropylpiperidin-3-yl)-1-methyl-1H-pyrazol-4-yl)-5,6-dihydroimidazo[1,2-d]pyrido[3,4-f][1,4]oxazepine]	16.1		0.571 nM
COc1cc2c(cc1[C@H](C)N1CCN(C(C)(C)C)CC1)-c1nc(-c3nc(C)nn3C(C)C)cn1CCO2 [Example 371, 10-[(1S)-1-(4-tert-butylpiperazin-1-yl)ethyl]-2-(2-isopropyl-5-methyl-1,2,4-triazol-3-yl)-9-methoxy-5,6-dihydroimidazo[1,2-d][1,4]benzoxazepine]	11.7		5.3 nM
Cc1nc(-c2cn3c(n2)-c2ccc(-c4cnn(C)c4C4CN(C(C)C)CCO4)cc2OCC3)n(C(C)C)n1 (stereo not drawn) [Example 372, 2-(2-isopropyl-5-methyl-1,2,4-triazol-3-yl)-9-[5-(4-isopropylmorpholin-2-yl)-1-methyl-pyrazol-4-yl]-5,6-dihydroimidazo[1,2-d][1,4]benzoxazepine]	18		0.992 nM
Cc1nc(-c2cn3c(n2)-c2cc(C(C)N4CCN(C)CC4)c(F)cc2OCC3)n(C(C)C)n1 (stereo not drawn) [Example 373, 9-fluoro-2-(2-isopropyl-5-methyl-1,2,4-triazol-3-yl)-10-[1-(4-methylpiperazin-1-yl)ethyl]-5,6-dihydroimidazo[1,2-d][1,4]benzoxazepine]	15.7		3.13 nM
CCN1CCN(C(C)c2cc3c(cc2F)OCCn2cc(-c4nc(C)nn4C(C)C)nc2-3)CC1 (stereo not drawn) [Example 374, 10-[1-(4-ethylpiperazin-1-yl)ethyl]-9-fluoro-2-(2-isopropyl-5-methyl-1,2,4-triazol-3-yl)-5,6-dihydroimidazo[1,2-d][1,4]benzoxazepine]	17.9		4.85 nM
